Results as given in US10017741B2, “Compositions and methods for obtaining enriched mesenchymal stem cell cultures” (StemCell Technologies Inc., priority 2013, dated 2018).

Columns and labels:
[1] = test system: BM-derived cultures (CD45+/CD11b+ macrophages, Sca1+ monocytes); assay: Flow cytometry of BM-derived expansion cultures; assay type: cell-based, mouse; details: BM-derived cultures, 1 μM up to P2
Protocol: (§1) c. Expansion of Human BM and Mouse BM and CB-Derived Cells Assay • 1. […] Cultures were allowed to grow for 10-14 days until adherent cells achieved 70 to 80% confluence. Mouse cultures were maintained under normal (5% CO2) or hypoxic conditions (5% CO2/5% O2) at 37 C in a cell culture incubator. Human cultures were maintained under 5% CO2 at 37 C in a humidified cell culture incubator. • 3. Adherent cells were passaged by releasing cultures from flask. Cultures were washed with 5 mL PBS and then 5 mL of 0.25% trypsin solution ([…] catalogue #07901) was added and the flasks incubated for 10 min at 37 C. To each flask, 5 mL complete medium was added to stop trypsin activity. • 4. Released cells were collected into a tube and centrifuged at 300×g for 5 minutes. • 5. Cells were resuspended in 2 mL of medium and counted using a hemocytometer. • 6. […] P1 cultures were incubated until they reached 70 to 80% confluence. • 8. Passaged cultures can be used at any time from P0 to P10 as needed for different applications.
(§2) d. Flow Cytometry Analysis • 1. Cultures of BM and CB-derived cells were trypsinized for 10 minutes and an equal volume of complete medium was added to cultures to stop trypsin activity • 2. Cell suspension was filtered through a 40 μm strainer, and cells counted using a hemocytometer • 3. Suspension was spun down at 300×g for 5 minutes. • 4. Supernatant was removed and cell pellet resuspended in FACS buffer (PBS with 2% FBS and 1 mM EDTA) • 5. A total of 1×10^5 cells in 300 μL FACS buffer was used for each flow cytometry analysis tube, including unstained, viability, compensation, and isotype controls. • 6. Cell suspensions were stained with fluorophore-labeled antibodies against CD45, CD11b, and Sca1, CD29, and viability dye. • 7. Cell suspensions were analyzed on a flow cytometer using compensation and isotype control to determine laser voltage and gating. • 8. Samples were gated on viable CD45^+ cells and 10,000 events per sample were collected. Alternatively, cells were gated on viable CD45^− cells and out of this gate the proportion of CD29+/Sca1^+ cells obtained.

[2] = test system: CB-derived cultures (CD45+/CD11b+ macrophages, Sca1+ monocytes); assay: Flow cytometry of CB-derived expansion cultures; assay type: cell-based, mouse; details: CB-derived cultures, 1 μM up to P2
Protocol: as §1, §2

COc1cc(Oc2ccnc3cc(OC)c(OC)cc23)ccc1NC(=O)NC(C)c1nccs1 (centres unmarked) [KI20227, N-{4-[(6,7-dimethoxy-4-quinolyl)oxy]-2-methoxyphenyl}-N0-[1-(1,3-thiazole-2-yl)ethyl]urea]
CD45+/CD11b+ mature macrophages, of viable cells [1]: < 2% | CD45+/CD11b+ mature macrophages, of viable cells [2]: < 2%
